From US9624182B2, “Compounds as lysophosphatidic acid receptor antagonists” (Amira Pharmaceuticals, Inc., priority 2009, dated 2017) come the findings set out here.

This test deals with T1, human LPA1 (Homo sapiens, UniProt Q92633).
T1 construct: the full-length cDNA for human LPA1 was obtained by PCR of the reverse transcription reaction; expressed in transfected cells
As to the kind of experiment: LPA1 calcium flux assay. Format: cell-based. The conditions noted are these: CHO cells expressing human LPA1, stimulated with 10 nM LPA; read-out: HLPA1 Ca Flux IC50. Summed up:
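CHO cells stably expressing cloned human LPA1, serum-starved overnight, loaded with Calcium 4 dye 1 h at 37 °C in HBSS/20 mM Hepes with 0.3% fatty-acid-free HSA. Compounds preincubated 30 min at room temperature, then cells stimulated with 10 nM LPA; intracellular Ca2+ read by fluorescence. IC50 from titration curves.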
A general note: A change in cytosolic calcium serves as a functional read-out for many receptors and channels.

T1 sequence (Q92633 whole entry): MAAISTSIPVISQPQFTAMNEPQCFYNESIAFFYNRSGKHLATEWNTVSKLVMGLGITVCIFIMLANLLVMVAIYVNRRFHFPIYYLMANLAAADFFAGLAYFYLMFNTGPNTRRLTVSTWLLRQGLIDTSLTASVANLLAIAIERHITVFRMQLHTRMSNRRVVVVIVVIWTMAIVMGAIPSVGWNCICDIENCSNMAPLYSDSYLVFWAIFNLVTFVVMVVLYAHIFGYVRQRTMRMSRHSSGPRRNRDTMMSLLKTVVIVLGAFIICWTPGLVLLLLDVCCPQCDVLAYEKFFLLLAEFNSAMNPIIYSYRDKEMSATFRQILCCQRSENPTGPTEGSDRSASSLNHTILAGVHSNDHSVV

The IC50 is the concentration at which inhibition is half-maximal. Consider `Cc1noc(-c2ccc(-c3ccc(CC(=O)O)cc3)cc2)c1CC(F)(F)CCc1ccccc1` [Compound 1-170, {4′-[4-(2,2-Difluoro-4-phenyl-butyl)-3-methyl-isoxazol-5-yl]-biphenyl-4-yl}-acetic acid], for which the IC50 was less than 300 nM. As to `CCC(C(=O)O)c1ccc(-c2ccc(-c3onc(C)c3C(O)CCCc3ccccc3C(F)(F)F)cc2)cc1` (centres unmarked) [Compound 1-171, 2-(4′-{4-[1-Hydroxy-4-(2-trifluoromethyl-phenyl)-butyl]-3-methyl-isoxazol-5-yl}-biphenyl-4-yl)-butyric acid], the IC50 is 300 to 1000 nM. For `Cc1noc(-c2ccc(-c3ccc(C4(CC(=O)O)CC4)cc3)cc2)c1CC(F)(F)CCc1ccccc1` [Compound 1-175, (1-{4′-[4-(2,2-Difluoro-4-phenyl-butyl)-3-methyl-isoxazol-5-yl]-biphenyl-4-yl}-cyclopropyl)-acetic acid], the IC50 was less than 300 nM. Consider `Cc1noc(-c2ccc(-c3ccc(CC(=O)O)cc3)cc2)c1NC(C)CCc1cccc(C(F)(F)F)c1` (centres unmarked) [Compound 1-181, (4′-{3-Methyl-4-[1-methyl-3-(3-trifluoromethyl-phenyl)-propylamino]-isoxazol-5-yl}-biphenyl-4-yl)-acetic acid], for which the IC50 lay in the range of 300 to 1000 nM. Under `Cc1noc(-c2ccc(-c3ccc(CC(=O)O)cc3)cc2)c1NC(C)CCc1cccc(Cl)c1` (centres unmarked) [Compound 1-182, (4′-{4-[3-(3-Chloro-phenyl)-1-methyl-propylamino]-3-methyl-isoxazol-5-yl}-biphenyl-4-yl)-acetic acid] stands less than 300 nM; under `Cc1noc(-c2ccc(-c3ccc(C4(CC(=O)O)CC4)cc3)cc2)c1NC(C)CCc1cccc(C(F)(F)F)c1` (centres unmarked) [Compound 1-183, [1-(4′-{3-Methyl-4-[1-methyl-3-(3-trifluoromethyl-phenyl)-propylamino]-isoxazol-5-yl}-biphenyl-4-yl)-cyclopropyl]-acetic acid], less than 300 nM; under `Cc1noc(-c2ccc(-c3ccc(C4(CC(=O)O)CC4)cc3)cc2)c1NC(C)CCc1cccc(Cl)c1` (centres unmarked) [Compound 1-184, [1-(4′-{4-[3-(3-Chloro-phenyl)-1-methyl-propylamino]-3-methyl-isoxazol-5-yl}-biphenyl-4-yl)-cyclopropyl]-acetic acid], less than 300 nM. Under `Cc1noc(-c2ccc(-c3ccc(C4(CC(=O)O)CC4)cc3)cc2)c1NC(C)CCc1cccc(F)c1` (centres unmarked) [Compound 1-185, [1-(4′-{4-[3-(3-Fluoro-phenyl)-1-methyl-propylamino]-3-methyl-isoxazol-5-yl}-biphenyl-4-yl)-cyclopropyl]-acetic acid] stands less than 300 nM; under `Cc1noc(-c2ccc(-c3ccc(C4(C(=O)O)CC4)cc3)cc2)c1C(O)CN[C@H]1CCc2ccccc21` (stereo partly drawn) [Compound 1-187, 1-(4′-{4-[1-Hydroxy-2-((S)-indan-1-ylamino)-ethyl]-3-methyl-isoxazol-5-yl}-biphenyl-4-yl)-cyclopropanecarboxylic acid], less than 300 nM.

As to `Cc1noc(-c2ccc(-c3ccc(C(Cc4ccccc4)C(=O)O)cc3)cc2)c1C(O)CCCc1ccccc1` (centres unmarked) [Compound 1-188, 2-{4′-[4-(1-Hydroxy-4-phenyl-butyl)-3-methyl-isoxazol-5-yl]-biphenyl-4-yl}-3-phenyl-propionic acid], the IC50 is less than 300 nM. With `Cc1noc(-c2ccc(-c3ccc(C4(C(=O)O)CC4)cc3)cc2)c1C(CO)NCc1ccccc1` (centres unmarked) [Compound 1-189, 1-{4′-[4-(1-Benzylamino-2-hydroxy-ethyl)-3-methyl-isoxazol-5-yl]-biphenyl-4-yl}-cyclopropanecarboxylic acid], the IC50 is less than 300 nM. For the compound `Cc1noc(-c2ccc(-c3ccc(C4(C(=O)O)CC4)cc3)cc2)c1C(O)CN` (centres unmarked) [Compound 1-190, 1-{4′-[4-(2-Amino-1-hydroxy-ethyl)-3-methyl-isoxazol-5-yl]-biphenyl-4-yl}-cyclopropanecarboxylic acid], the IC50 was less than 300 nM.

On to `Cc1noc(-c2ccc(-c3ccc(CCC(=O)O)cc3)cc2)c1CSCCc1ccccc1` [Compound 1-191, 3-[4′-(3-Methyl-4-phenethylsulfanylmethyl-isoxazol-5-yl)-biphenyl-4-yl]-propionic acid], for which the IC50 was less than 300 nM. Next, `Cc1noc(-c2ccc(-c3ccc(CCC(=O)O)cc3)cc2)c1NC(C)CCc1cccc(C(F)(F)F)c1` (centres unmarked) [Compound 1-192, 3-(4′-{3-Methyl-4-[1-methyl-3-(3-trifluoromethyl-phenyl)-propylamino]-isoxazol-5-yl}-biphenyl-4-yl)-propionic acid]: less than 300 nM. Next, `Cc1noc(-c2ccc(-c3ccc(CCC(=O)O)cc3)cc2)c1NC(C)CCc1cccc(Cl)c1` (centres unmarked) [Compound 1-193, 3-(4′-{4-[3-(3-Chloro-phenyl)-1-methyl-propylamino]-3-methyl-isoxazol-5-yl}-biphenyl-4-yl)-propionic acid]: less than 300 nM; `Cc1cnn(Cc2c(C)noc2-c2ccc(-c3ccc(C4(C(=O)O)CC4)cc3)cc2)c1` [Compound 1-194, 1-{4′-[3-Methyl-4-(4-methyl-pyrazol-1-ylmethyl)-isoxazol-5-yl]-biphenyl-4-yl}-cyclopropanecarboxylic acid]: 1000 to 50000 nM; `Cc1ccc2nc(NCc3c(C)noc3-c3ccc(-c4ccc(C5(C(=O)O)CC5)cc4)cc3)sc2c1` [Compound 1-195, 1-(4′-{3-Methyl-4-[(6-methyl-benzothiazol-2-ylamino)-methyl]-isoxazol-5-yl}-biphenyl-4-yl)-cyclopropanecarboxylic acid]: 1000 to 50000 nM. For `Cc1noc(-c2ccc(-c3ccc(C4(C(=O)O)CC4)cc3)cc2)c1Cn1cc(Br)cn1` [Compound 1-196, 1-{4′-[4-(4-Bromo-pyrazol-1-ylmethyl)-3-methyl-isoxazol-5-yl]-biphenyl-4-yl}-cyclopropanecarboxylic acid], the IC50 lay in the range of 1000 to 50000 nM. Under `Cc1noc(-c2ccc(-c3ccc(CCC(=O)O)cc3)cc2)c1C(O)CCCc1ccccc1` (centres unmarked) [Compound 1-197, 3-{4′-[4-(1-Hydroxy-4-phenyl-butyl)-3-methyl-isoxazol-5-yl]-biphenyl-4-yl}-propionic acid] stands less than 300 nM. Regarding `Cc1noc(-c2ccc(-c3cccc(CCC(=O)O)c3)cc2)c1C(O)CCCc1ccccc1` (centres unmarked) [Compound 1-200, 3-{4′-[4-(1-Hydroxy-4-phenyl-butyl)-3-methyl-isoxazol-5-yl]-biphenyl-3-yl}-propionic acid], the IC50 was less than 300 nM. Next, `Cc1noc(-c2ccc(-c3ccccc3CCC(=O)O)cc2)c1C(O)CCCc1ccccc1` (centres unmarked) [Compound 1-201, 3-{4′-[4-(1-Hydroxy-4-phenyl-butyl)-3-methyl-isoxazol-5-yl]-biphenyl-2-yl}-propionic acid]: 1000 to 50000 nM; `Cc1noc(-c2ccc(-c3ccc(C4(C(=O)O)CC4)cc3)cc2)c1C(=O)C[S+]([O-])Cc1ccccc1` (centres unmarked) [Compound 1-202, 1-{4′-[3-Methyl-4-(2-phenylmethanesulfinyl-acetyl)-isoxazol-5-yl]-biphenyl-4-yl}-cyclopropanecarboxylic acid]: 1000 to 50000 nM. In the case of `Cc1noc(-c2ccc(-c3ccccc3C3(C(=O)O)CC3)cc2)c1C(O)CCCc1ccccc1` (centres unmarked) [Compound 1-203, 1-{4′-[4-(1-Hydroxy-4-phenyl-butyl)-3-methyl-isoxazol-5-yl]-biphenyl-2-yl}-cyclopropanecarboxylic acid], the IC50 lay in the range of 1000 to 50000 nM.
